Results from patent US11369609B2, “Small molecule Wnt inhibitor as treatment for dyslipidemia” (Yale University, priority 2019, dated 2022).

System: canonical Wnt signaling
Assay: Renal fibrosis in unilateral ureteral obstruction (UUO) mice treated with Wnt inhibitor
Assay type: in vivo
Protocol: UUO surgery procedure was performed as previously described (44). Briefly, mice were anesthetized with isoflurane (3%-5% for induction and 1%-3% for maintenance). Mice were shaved on the left side of the abdomen, a vertical incision was made through the skin with a scalpel, and the skin was retracted. A second incision was made through the peritoneum to expose the kidney. The left ureter was ligated twice 15 mm below the renal pelvis with surgical silk, and the ureter was then severed between the 2 ligatures. Then, the ligated kidney was placed gently back into its correct anatomical position, and sterile saline was added to replenish loss of fluid. The incisions were sutured and mice were individually caged. Buprenorphine was used as an analgesic. The first dose was administered 30 minutes before surgery and then every 12 h for 72 h, at a dose of 0.05 mg/kg subcutaneously. Mice were sacrificed and kidney and blood samples were harvested after perfusion with PBS at 10 days after UUO. Contralateral kidneys were used as a nonfibrotic control for all experiments using this model.
A point-counting method was utilized to evaluate the relative area of the mesangial matrix. PAS-stained glomeruli from each mouse were analyzed using a digital microscope screen grid containing 540 (27×20) points. Masson's trichrome-stained images were evaluated by ImageJ software, and the fibrotic areas were estimated.
Deparaffinized sections were incubated with picrosirius red solution for 1 hour at room temperature. The slides were washed twice with acetic acid solution for 30 seconds per wash. The slides were then dehydrated in absolute alcohol three times, cleared in xylene, and mounted with a synthetic resin. Sirius red staining was analyzed using ImageJ software, and fibrotic areas were quantified.
Paraffin-embedded kidney sections (5 μm thick) were deparaffinized and rehydrated (2 min in xylene, four times; 1 min in 100% ethanol, twice; 1 min in 95% ethanol; 45 s in 70% ethanol; and 1 min in distilled water), and the antigen was retrieved in a 10 mM citrate buffer pH 6 at 98° C. for 60 min. To block the endogenous peroxidase, all sections were incubated in 0.3% hydrogen peroxide for 10 min. The immunohistochemistry was performed using a Vectastain ABC Kit (Vector Laboratories, Burlingame, Calif.). Mouse anti-[…] antibody (1:100) and CPT1a (Abnova; H00001374-DO1P; 1:100) antibody was used. In the negative controls, the primary antibody was omitted and replaced with the blocking solution.
Frozen kidney sections (5 μm) were used for immunofluorescence; double positive labeling with CD31/αSMA, CD31/TGFβR1 and E-cadherin/αSMA was measured. Briefly, frozen sections were dried and placed in acetone for 10 min at −30° C. Once the sections were dried, they were washed twice in phosphate-buffered saline (PBS) for 5 min and then blocked in 2% bovine serum albumin/PBS for 30 min at room temperature. Thereafter, the sections were incubated in primary antibody (1:100) for 1 hour and washed in PBS (5 min) three times. Next, the sections were incubated with the secondary antibodies for 30 min, washed with PBS three times (5 min each), and mounted with mounting medium with DAPI (Vector Laboratories, Burlingame, Calif.). The immune-labeled sections were analyzed by fluorescence microscopy. For each mouse, original magnification of ×400 pictures were obtained from six different areas, and quantification was performed.
To determine whether inhibition of the Wnt signaling pathway could ameliorate the observed fibrosis, LGK974, a small molecule inhibitor of all secreted Wnts (43), was utilized. FIGS. 21A-21B depict the schematic diagram showing the experimental protocol for LGK974 treatment in diabetic CD-1 and UUO mice.

Cc1cc(-c2ncc(CC(=O)Nc3ccc(-c4cnccn4)cn3)cc2C)ccn1 [LGK974]
ECM deposition (LGK974 5 mg/kg): greatly diminished
collagen accumulation (LGK974 5 mg/kg): greatly diminished
glomerulosclerosis (LGK974 5 mg/kg): greatly diminished
relative area fibrosis (LGK974 5 mg/kg): greatly diminished
endothelial GR level (kidney CD31-positive cells): significantly restored
level of β-catenin (kidney immunohistochemistry): suppressed
